Read-outs that look alike come from different tables or passages of the source.
Type: physicochemical
Conditions: buffer, 13 mg/mL, pH 6.2
Method: For the aqueous preparations obtained in (1) to (3) above, tests evaluating stability at 60° C./3 weeks were performed. The calcium levofolinate content remaining in the aqueous solution was measured using high performance liquid chromatography under the following conditions (the same were employed in the following experiments) 2 ml each of the test preparations were weighed, and 10 ml of the internal standard solution described below (the same was employed in the following experiments) were added thereto. Subsequently, water was added to adjust the total volume of the solution to 50 ml, thereby to prepare a test solution. Meanwhile, 62.5 mg of calcium levofolinate were dissolved in water so as to prepare a 25 ml solution. Then, to 10 ml of the resultant solution were added 10 ml of the internal standard solution, and the total volume of the solution was adjusted to 50 ml by adding water, thereby to prepare a standard solution. For 20 μl of the standard solution and the test solution, the content of calcium levofolinate was measured by the liquid chromatography method under the following conditions.
1) Measurement Conditions • Detector: Ultraviolet absorptiometer (Measurement wavelength: 254 nm) • Column: A stainless tube having an internal diameter of 4.0 mm and a length of 15 cm was filled with 5 μm of octadecylsilylated silica gel for liquid chromatography. • Column temperature: A constant temperature near 45° C. • Mobile phase: The pH value of a mixed test solution containing 0.008 mol/L of disodium hydrogen phosphate solution/methanol/40% aqueous tetrabutylammonium hydroxide solution (385:110:1.3 (volume ratio)) was adjusted to 7.5 by adding phosphoric acid. • Flow rate: The flow rate was regulated so that the retention time of calcium levofolinate became about 10 minutes. • Internal standard solution: A solution prepared by adding water to 0.04 g of methyl parahydroxybenzoate so that the whole amount of solution is 100 ml.
About 1100 ml of water for injection were added to a beaker. Then, 8.04 g of sodium chloride, 3.6 g of tromethamine, and 1.2 g of ascorbic acid were added thereto with bubbling of nitrogen gas, and the components were dissolved with stirring. To the resultant solution were added 15.62 g of calcium levofolinate, which was dissolved with stirring. Thereafter, the pH value of the solution was adjusted to 6.2 by adding 5% hydrochloric acid solution dropwise. Water for injection was further added to the solution to adjust the total volume to 1200 ml. Subsequently, the bubbling of nitrogen gas was stopped, and the solution was filtered with a filtration filter, thereby to yield a solution for injection. A 5 ml-syringe made of polypropylene, the inside space of which had been substituted by nitrogen gas, was filled with 5 ml of the resultant solution for injection, followed by steam sterilization under high pressure at 105° C. for 30 minutes. The thus-sterilized syringe was packaged together with a deoxidant, AGELESS ZP-50 (trade name, Mitsubishi Gas Chemical Company, Inc. Japan) by using a plastic film with high air impermeability.
For an aqueous preparation as obtained above, a stability test (60° C./75% RH, and 40° C./75% RH) was performed by measuring the content of calcium levofolinate remaining after storage for a certain period by the high performance liquid chromatography method.

Nc1nc(=O)c2c([nH]1)NC[C@H](CNc1ccc(C(=O)N[C@@H](CCC(=O)O)C(=O)O)cc1)N2C=O [calcium levofolinate, (6S)-N-[4-[[(2-amino-5-formyl-1,4,5,6,7,8-hexahydro-4-oxo-6-pteridinyl)methyl]amino]benzoyl]-L-glutamic acid]
remaining ratio (%) of calcium levofolinate (0 months): 100%
remaining ratio (%) of calcium levofolinate (0 weeks): 100%
remaining ratio (%) of calcium levofolinate (1 month): 99.8%
remaining ratio (%) of calcium levofolinate (2 months): 98.8%
remaining ratio (%) of calcium levofolinate (4 months): 96.6%
remaining ratio (%) of calcium levofolinate (6 months): 91.8%
remaining ratio (%) of calcium levofolinate (168 h): 96.6%
remaining ratio (%) of calcium levofolinate (336 h): 96.2%
remaining ratio (%) of calcium levofolinate (504 h): 95.3%
remaining ratio (%) of calcium levofolinate (672 h): 94.4%
